Test results reported in PubChem BioAssay AID206 (DTP/NCI, 2004).
Where “and” joins values, the source holds several entries; their conditions need not be identical. Equal entries are not always repeated. Records with an inconclusive call do not appear.

Tested on: nude mice, HT29 intrarenal xenograft, tumor weight T/C
Experiment: NCI In Vivo Anticancer Drug Screen. Data for tumor model HT29;CX-1 Human Adenocarcinoma (MER+) (intrarenal inoculation) in NU/NU Swiss (nude) mice
Details: endpoint: mean tumor weight change, higher = larger tumour
Summary of the method: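 Endpoint measured as tumor size or survival; ratio reported is treated group over vehicle controls.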

[1] = dose: 75.0 mg/kg/injection, schedule: Q04DX004 (sc), vehicle: saline with Tween-80
[2] = dose: 150.0 mg/kg/injection, schedule: Q04DX004 (sc), vehicle: saline with Tween-80
[3] = dose: 300.0 mg/kg/injection, schedule: Q04DX004 (sc), vehicle: saline with Tween-80
[4] = dose: 37.5 mg/kg/injection, schedule: Q04DX004 (sc), vehicle: saline with Tween-80
[5] = dose: 36.0 mg/kg/injection, schedule: Q04DX004 (sc), vehicle: saline with Tween-80
[6] = dose: 72.0 mg/kg/injection, schedule: Q04DX004 (sc), vehicle: saline with Tween-80

Structure (SMILES): Cc1c(N)nc([C@H](CC(N)=O)NC[C@H](N)C(N)=O)nc1C(=O)N[C@H](C(=O)N[C@H](C)[C@@H](O)CC(=O)N[C@H](C(=O)NC(O[C@@H]1O[C@@H](C)[C@@H](N)[C@@H](O)[C@H]1O)C(O)c1nc(-c2nc(C(=O)NCCCCN)cs2)cs1)[C@@H](C)O)[C@@H](O[C@@H]1O[C@@H](CO)[C@@H](O)[C@H](O)[C@@H]1O[C@H]1O[C@H](CO)[C@@H](O)[C@H](OC(N)=O)[C@@H]1O)c1c[nH]cn1 (some centres not stated)
- T/C (dose: 4.0 mg/kg/injection, schedule: Q04DX004 (sc), vehicle: saline): 104 % of control
- T/C (dose: 8.0 mg/kg/injection, schedule: Q04DX004 (sc), vehicle: saline): 68 % of control
- T/C (dose: 16.0 mg/kg/injection, schedule: Q04DX004 (sc), vehicle: saline): 73 % of control
- T/C (dose: 32.0 mg/kg/injection, schedule: Q04DX004 (sc), vehicle: saline): 28 % of control

Structure (SMILES): CN(C)N=Nc1ccccc1
- T/C (dose: 25.0 mg/kg/injection, schedule: Q04DX004 (sc), vehicle: Klucel (hydroxypropylcellulose) (HPC)): 93 % of control
- T/C (dose: 50.0 mg/kg/injection, schedule: Q04DX004 (sc), vehicle: Klucel (hydroxypropylcellulose) (HPC)): 62 % of control
- T/C (dose: 100.0 mg/kg/injection, schedule: Q04DX004 (sc), vehicle: Klucel (hydroxypropylcellulose) (HPC)): 84 % of control

Structure (SMILES): CN=C(N)N/N=C(\C)c1ccc2oc3ccc(/C(C)=N/NC(N)=NC)cc3c2c1
- T/C [1]: 156 % of control
- T/C [2]: 63 % of control
- T/C [3]: 98 % of control

Structure (SMILES): Oc1c(Cl)cc(Cl)cc1C1N2CCCCC2C2c3cccn3-c3ccccc3N21 (configuration not stated)
- T/C (dose: 1200.0 mg/kg/injection, schedule: Q04DX004 (sc), vehicle: Klucel (hydroxypropylcellulose) (HPC)): 111 % of control

Structure (SMILES): CCC1CCCCN1C(=S)N/N=C(\C)c1ccccn1 (configuration not stated)
- T/C [4]: 59 % of control
- T/C [1]: 26 % of control

Structure (SMILES): C1CCC2C[N-]CCC2C1.C1CCC2C[N-]CCC2C1.C1CCC2C[N-]CCC2C1.C1CCC2C[N-]CCC2C1.[Cl][Rh][Cl] (configuration not stated)
- T/C (dose: 9.0 mg/kg/injection, schedule: Q04DX004 (sc), vehicle: saline with Tween-80): 96 % of control
- T/C (dose: 18.0 mg/kg/injection, schedule: Q04DX004 (sc), vehicle: saline with Tween-80): 82 % of control
- T/C [5]: 84 % of control
- T/C [6]: 73 % of control

Structure (SMILES): CCC(CC)COC(=O)c1ccccc1C(=O)OCC(CC)CC
- T/C [3]: 94 % of control
- T/C (dose: 600.0 mg/kg/injection, schedule: Q04DX004 (sc), vehicle: saline with Tween-80): 53 % of control
- T/C (dose: 1200.0 mg/kg/injection, schedule: Q04DX004 (sc), vehicle: saline with Tween-80): 81 % of control
- T/C (dose: 2400.0 mg/kg/injection, schedule: Q04DX004 (sc), vehicle: saline with Tween-80): 71 % of control

Structure (SMILES): COc1cc([C@@H]2c3cc4c(cc3[C@@H](OC3OC5COC(C)OC5C(O)C3O)[C@H]3COC(=O)[C@H]23)OCO4)cc(OC)c1O (some centres not stated)
- T/C (dose: 4.0 mg/kg/injection, schedule: Q01DX010 (sc), vehicle: saline): 71 % of control
- T/C (dose: 32.0 mg/kg/injection, schedule: Q01DX010 (sc), vehicle: saline): 62 % of control

Structure (SMILES): N=C(N)Sc1cc(O)ccc1O
- T/C (dose: 75.0 mg/kg/injection, schedule: Q04DX004 (sc), vehicle: saline): 49 % of control
- T/C (dose: 150.0 mg/kg/injection, schedule: Q04DX004 (sc), vehicle: saline): 54 % of control
- T/C (dose: 300.0 mg/kg/injection, schedule: Q04DX004 (sc), vehicle: saline): 54 % of control

Structure (SMILES): COCCCNC1=C(C#N)C(=O)NC(c2cccc([N+](=O)[O-])c2)S1 (configuration not stated)
- T/C (dose: 100.0 mg/kg/injection, schedule: Q04DX004 (sc), vehicle: saline with Tween-80): 91 % of control
- T/C (dose: 200.0 mg/kg/injection, schedule: Q04DX004 (sc), vehicle: saline with Tween-80): 165 % of control
- T/C (dose: 800.0 mg/kg/injection, schedule: Q04DX004 (sc), vehicle: saline with Tween-80): 164 % of control

Structure (SMILES): Nc1ccc(C(OC(=O)c2cc3ccccc3c(Cc3c(O)c(C(=O)OC(c4ccc(N)cc4)(c4ccc(N)cc4)c4ccc(N)cc4)cc4ccccc34)c2O)(c2ccc(N)cc2)c2ccc(N)cc2)cc1
- T/C [5]: 118 % of control
- T/C [6]: 70 % of control
- T/C (dose: 144.0 mg/kg/injection, schedule: Q04DX004 (sc), vehicle: saline with Tween-80): 68 % of control
- T/C [2]: 94 % of control
- T/C [3]: 55 % of control

Structure (SMILES): CCOC1=Cc2c(oc3c(C(C)(C)C)cc(OCC)cc23)OC(C(C)(C)C)=C1
- T/C [4]: 79 % of control
- T/C [1]: 87 % of control
- T/C [2]: 256 % of control

Structure (SMILES): C=CS(C=C)=NS(=O)(=O)c1ccc(C)cc1
- T/C (dose: 18.75 mg/kg/injection, schedule: Q04DX004 (sc), vehicle: Klucel (hydroxypropylcellulose) (HPC)): 91 % of control
- T/C (dose: 37.5 mg/kg/injection, schedule: Q04DX004 (sc), vehicle: Klucel (hydroxypropylcellulose) (HPC)): 60 % of control

Structure (SMILES): NC1(C(=O)O)CCCC1
- T/C (dose: 12.5 mg/kg/injection, schedule: Q01DX010 (sc), vehicle: saline): 49 % of control
- T/C (dose: 200.0 mg/kg/injection, schedule: Q01DX010 (sc), vehicle: saline): -20 % of control

Structure (SMILES): CCN(C)N=Nc1ccc(C(N)=O)cc1
- T/C (dose: 75.0 mg/kg/injection, schedule: Q04DX004 (sc), vehicle: Klucel (hydroxypropylcellulose) (HPC)): 92 % of control
- T/C (dose: 150.0 mg/kg/injection, schedule: Q04DX004 (sc), vehicle: Klucel (hydroxypropylcellulose) (HPC)): 68 % of control

Structure (SMILES): COC(=O)Nc1ccc(Cc2ccc(NC(=O)OC)cc2)cc1
- T/C (dose: 100.0 mg/kg/injection, schedule: Q01DX010 (sc), vehicle: saline with Tween-80): 26 % of control
- T/C (dose: 200.0 mg/kg/injection, schedule: Q01DX010 (sc), vehicle: saline with Tween-80): 100 % of control
- T/C (dose: 400.0 mg/kg/injection, schedule: Q01DX010 (sc), vehicle: saline with Tween-80): 152 % of control
- T/C (dose: 800.0 mg/kg/injection, schedule: Q01DX010 (sc), vehicle: saline with Tween-80): 58 % of control

Structure (SMILES): CCC1(O)CC2CN(CCc3c([nH]c4ccccc34)C(C(=O)OC)(c3cc4c(cc3OC)N(C)C3C(O)(C(=O)NCCSSCCNC(=O)C5(O)C(O)C6(CC)C=CCN7CCC8(c9cc(C%10(C(=O)OC)CC%11CN(CCc%12c%10[nH]c%10ccccc%12%10)CC(O)(CC)C%11)c(OC)cc9N(C)C58)C76)C(O)C5(CC)C=CCN6CCC43C65)C2)C1 (configuration not stated)
- T/C (dose: 0.38 mg/kg/injection, schedule: Q04DX004 (sc), vehicle: suspension in saline): 85 % of control
- T/C (dose: 0.75 mg/kg/injection, schedule: Q04DX004 (sc), vehicle: saline): 39 % of control
- T/C (dose: 0.75 mg/kg/injection, schedule: Q04DX004 (sc), vehicle: suspension in saline): 84 % of control
- T/C (dose: 1.5 mg/kg/injection, schedule: Q04DX004 (sc), vehicle: saline): 22 % of control and 29 % of control
- T/C (dose: 1.5 mg/kg/injection, schedule: Q04DX004 (sc), vehicle: suspension in saline): 44 % of control
- T/C (dose: 3.0 mg/kg/injection, schedule: Q04DX004 (sc), vehicle: saline): -5 % of control
- T/C (dose: 3.0 mg/kg/injection, schedule: Q04DX004 (sc), vehicle: suspension in saline): 55 % of control
- T/C (dose: 6.0 mg/kg/injection, schedule: Q04DX004 (sc), vehicle: suspension in saline): 51 % of control

Structure (SMILES): CC(=O)C1=C(O)C2(O)C(=O)c3c(c(C)c4ccc(C)c(O)c4c3O)CC2C(N)C1=O (configuration not stated)
- T/C (dose: 25.0 mg/kg/injection, schedule: Q04DX004 (sc), vehicle: saline): 153 % of control
- T/C (dose: 50.0 mg/kg/injection, schedule: Q04DX004 (sc), vehicle: saline): 173 % of control
- T/C (dose: 100.0 mg/kg/injection, schedule: Q04DX004 (sc), vehicle: saline): 102 % of control
- T/C (dose: 200.0 mg/kg/injection, schedule: Q04DX004 (sc), vehicle: saline): 109 % of control

Structure (SMILES): CCC(C)Nc1ccc(N)cc1 (configuration not stated)
- T/C (dose: 2.25 mg/kg/injection, schedule: Q04DX004 (sc), vehicle: Klucel (hydroxypropylcellulose) (HPC)): 64 % of control
- T/C (dose: 4.5 mg/kg/injection, schedule: Q04DX004 (sc), vehicle: Klucel (hydroxypropylcellulose) (HPC)): 64 % of control
- T/C (dose: 9.0 mg/kg/injection, schedule: Q04DX004 (sc), vehicle: Klucel (hydroxypropylcellulose) (HPC)): 101 % of control

Structure (SMILES): OC(C1CO1)C(O)C1CO1 (configuration not stated)
- T/C (dose: 0.5 mg/kg/injection, schedule: Q01DX010 (sc), vehicle: saline): 113 % of control
- T/C (dose: 1.0 mg/kg/injection, schedule: Q01DX010 (sc), vehicle: saline): 52 % of control

Structure (SMILES): C[Si](C)(C)n1nnn(-c2ccccc2)c1=O
- T/C [4]: 116 % of control
- T/C [1]: 120 % of control
- T/C [3]: 116 % of control

Structure (SMILES): COC1CC(C)C(OC)c2cc(O)cc(c2O)NC(=O)/C(C)=C/C=C\C(C)C(OC(N)=O)/C(C)=C\C(C)C1OC (configuration not stated)
- T/C (dose: 50.0 mg/kg/injection, schedule: Q04DX004 (sc), vehicle: saline + alcohol): 113 % of control

Structure (SMILES): COC(=O)CC(N)C(=O)O (configuration not stated)
- T/C (dose: 225.0 mg/kg/injection, schedule: Q04DX004 (sc), vehicle: saline with Tween-80): 103 % of control
- T/C (dose: 450.0 mg/kg/injection, schedule: Q04DX004 (sc), vehicle: saline with Tween-80): 81 % of control
- T/C (dose: 900.0 mg/kg/injection, schedule: Q04DX004 (sc), vehicle: saline with Tween-80): 69 % of control
- T/C (dose: 1800.0 mg/kg/injection, schedule: Q04DX004 (sc), vehicle: saline with Tween-80): 35 % of control
